Reference: US9403798B2, “Triazinone compound and T-type calcium channel inhibitor” (NISSAN CHEMICAL INDUSTRIES, LTD., priority 2012, dated 2016)

Target: T1, Human T-type calcium channel (Cav 3.2) (Homo sapiens, UniProt O95180)
T1 construct: Edward Perez-Reyes, University of Virginia, USA; host or cells: HEK293
Experiment: Calcium Influx Inhibition Assay
Assay type: cell-based
Conditions: Human T-type calcium channel (Cav 3.2) expressing HEK293 cells, FLIPR Calcium 4 fluorescence
Experimental: 1. Calcium Influx Inhibition Assay
Human T-type calcium channel (Cav 3.2) expressing HEK293 cells were obtained from Prof. Edward Perez-Reyes, University of Virginia, USA. The calcium-sensitive fluorescent dye used was FLIPR Calcium 4 Assay Kit (Molecular Devices). To a black 96-well plate with a clear bottom coated with type I collagen, the human T-type calcium channel (Cav 3.2) expressing HEK293 cells were seeded and cultured overnight, and the culture medium was removed. A solution of the calcium-sensitive fluorescent dye was added, and the plate was incubated at 37° C. in an atmosphere of 5% carbon dioxide for 30 minutes. To the plate, a diluted solution of a compound was added, and the whole was further incubated at 37° C. in an atmosphere of 5% carbon dioxide for 30 minutes. While fluorescence was continuously analyzed from the bottom with a FlexStation 3 (Molecular Devices), a calcium solution was added. […] From the rise in the fluorescence from the base line, the inhibition percentage was calculated. The logarithms of compound concentrations were plotted with respect to the inhibition activities to give an IC50 value.

T1 sequence (O95180 whole entry): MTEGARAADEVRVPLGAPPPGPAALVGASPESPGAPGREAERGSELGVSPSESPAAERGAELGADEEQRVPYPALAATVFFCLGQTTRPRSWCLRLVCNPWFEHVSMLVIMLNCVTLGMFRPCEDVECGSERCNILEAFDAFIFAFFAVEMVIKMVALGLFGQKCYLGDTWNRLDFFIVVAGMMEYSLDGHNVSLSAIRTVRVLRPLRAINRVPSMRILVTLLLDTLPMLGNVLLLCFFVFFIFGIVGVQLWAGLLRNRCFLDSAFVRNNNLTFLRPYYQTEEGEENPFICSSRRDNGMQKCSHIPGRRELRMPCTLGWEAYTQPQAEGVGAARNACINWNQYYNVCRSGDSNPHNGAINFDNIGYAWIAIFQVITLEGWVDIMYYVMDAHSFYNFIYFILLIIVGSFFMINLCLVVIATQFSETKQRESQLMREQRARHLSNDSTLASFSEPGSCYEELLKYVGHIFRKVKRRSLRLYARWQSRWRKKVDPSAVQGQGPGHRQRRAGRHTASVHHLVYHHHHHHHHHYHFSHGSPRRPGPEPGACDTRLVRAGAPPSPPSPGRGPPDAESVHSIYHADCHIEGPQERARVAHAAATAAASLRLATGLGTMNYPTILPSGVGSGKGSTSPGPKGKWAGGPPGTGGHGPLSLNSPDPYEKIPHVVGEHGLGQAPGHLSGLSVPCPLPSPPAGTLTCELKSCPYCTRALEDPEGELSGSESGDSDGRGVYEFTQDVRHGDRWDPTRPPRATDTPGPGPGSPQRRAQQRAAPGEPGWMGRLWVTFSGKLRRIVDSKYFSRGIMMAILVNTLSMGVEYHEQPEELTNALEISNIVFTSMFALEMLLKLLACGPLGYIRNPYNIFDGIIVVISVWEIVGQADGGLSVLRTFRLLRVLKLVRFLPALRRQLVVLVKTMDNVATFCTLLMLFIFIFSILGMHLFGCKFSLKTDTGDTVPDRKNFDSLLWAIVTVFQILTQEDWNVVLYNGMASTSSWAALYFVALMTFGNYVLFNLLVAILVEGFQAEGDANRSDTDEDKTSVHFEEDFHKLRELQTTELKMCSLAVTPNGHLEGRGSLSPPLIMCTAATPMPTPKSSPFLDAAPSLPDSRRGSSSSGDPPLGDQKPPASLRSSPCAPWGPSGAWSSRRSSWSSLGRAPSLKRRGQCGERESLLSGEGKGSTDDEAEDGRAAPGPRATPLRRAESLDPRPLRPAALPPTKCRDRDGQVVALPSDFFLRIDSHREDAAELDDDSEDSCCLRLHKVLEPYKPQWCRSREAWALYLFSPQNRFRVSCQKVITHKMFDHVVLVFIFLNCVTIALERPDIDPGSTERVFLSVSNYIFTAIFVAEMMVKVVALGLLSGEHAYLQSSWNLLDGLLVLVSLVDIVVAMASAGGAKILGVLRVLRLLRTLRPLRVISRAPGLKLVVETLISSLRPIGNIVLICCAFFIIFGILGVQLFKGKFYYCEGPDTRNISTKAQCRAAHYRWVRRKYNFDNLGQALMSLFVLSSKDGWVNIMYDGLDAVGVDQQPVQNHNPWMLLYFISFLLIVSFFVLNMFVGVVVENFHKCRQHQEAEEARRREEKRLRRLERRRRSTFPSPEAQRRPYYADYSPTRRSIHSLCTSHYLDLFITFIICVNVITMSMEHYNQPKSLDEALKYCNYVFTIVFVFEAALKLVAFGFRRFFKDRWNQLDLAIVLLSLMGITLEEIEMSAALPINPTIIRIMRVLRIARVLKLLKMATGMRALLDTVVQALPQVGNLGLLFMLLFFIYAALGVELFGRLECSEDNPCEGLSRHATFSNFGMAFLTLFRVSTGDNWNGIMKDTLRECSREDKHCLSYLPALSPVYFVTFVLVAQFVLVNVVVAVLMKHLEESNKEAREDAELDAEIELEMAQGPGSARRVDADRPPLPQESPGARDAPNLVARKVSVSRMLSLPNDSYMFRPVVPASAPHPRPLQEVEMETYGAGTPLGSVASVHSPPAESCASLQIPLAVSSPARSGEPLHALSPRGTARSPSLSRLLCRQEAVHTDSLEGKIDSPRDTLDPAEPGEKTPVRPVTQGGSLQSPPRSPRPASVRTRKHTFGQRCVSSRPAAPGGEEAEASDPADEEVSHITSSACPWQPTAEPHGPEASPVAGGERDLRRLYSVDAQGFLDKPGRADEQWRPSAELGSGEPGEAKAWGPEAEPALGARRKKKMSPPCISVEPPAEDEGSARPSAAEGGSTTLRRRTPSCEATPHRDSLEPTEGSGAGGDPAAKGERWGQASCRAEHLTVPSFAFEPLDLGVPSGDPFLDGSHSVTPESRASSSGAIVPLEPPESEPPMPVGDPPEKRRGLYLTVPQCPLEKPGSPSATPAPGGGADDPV

SMILES | IC50 [nM]
O=c1nc(N[C@@H]2CCO[C@H](c3ccc(F)cc3)C2)ncn1Cc1ccc(C(F)(F)F)s1 (racemic) [compound 307] | 270
O=c1nc(N[C@@H]2CO[C@H](c3ccc(F)cc3)C2)ncn1Cc1ccc(C(F)(F)F)s1 (racemic) [compound 309] | 520
O=c1nc(NCC2CC2c2ccc(F)cc2)ncn1Cc1ccc(C(F)(F)F)s1 (single isomer, unassigned) [compound 310] | 170
O=c1nc(N2CCN(c3ccc(F)cc3)CC2)nc(CO)n1Cc1ccc(C(F)(F)F)s1 [458b] | 53
CC(C)(C)c1cc(Cn2cnc(N3CCN(c4ccc(F)cc4)CC3)nc2=O)[nH]n1 [compound 15] | 280
O=c1cc(C(F)(F)F)ccn1Cn1cnc(N2CCN(c3ccc(F)cc3)CC2)nc1=O [compound 16] | 580
O=c1nc(N2CCN(c3ccc(F)cc3)CC2)ncn1Cc1ccc(C(F)(F)F)o1 [compound 21] | 61
O=c1nc(N2CCN(c3ccc(F)cc3)CC2)ncn1Cc1ccc(C(F)(F)F)s1 [compound 25] | 25
O=c1nc(N2CCN(c3ccc(F)cc3)CC2)ncn1Cn1ccc(C2CCCCC2)n1 [compound 27] | 150
O=c1nc(N2CCN(c3ccc(F)cc3)CC2)ncn1Cc1csc(C(F)(F)F)n1 [compound 29] | 320
CCOC(=O)c1cc(C(C)(C)C)n(Cn2cnc(N3CCN(c4ccc(F)cc4)CC3)nc2=O)n1 [compound 34] | 520
O=c1nc(N2CCN(c3ccc(Cl)cc3)CC2)ncn1Cn1ccc(C(F)(F)F)n1 [compound 38] | 75
Cc1cccc(N2CCN(c3ncn(Cn4ccc(C(F)(F)F)n4)c(=O)n3)CC2)c1 [compound 39] | 210
O=c1nc(N2CCN(c3ccc(SC(F)(F)F)cc3)CC2)ncn1Cn1ccc(C(F)(F)F)n1 [compound 43] | 440
N#Cc1ccc(N2CCN(c3ncn(Cn4ccc(C(F)(F)F)n4)c(=O)n3)CC2)cc1 [compound 49] | 860
O=c1nc(N2CCN(c3cc(F)c(F)c(F)c3)CC2)ncn1Cn1ccc(C(F)(F)F)n1 [compound 58] | 170
Cc1ccccc1N1CCN(c2ncn(Cn3ccc(C(F)(F)F)n3)c(=O)n2)CC1 [compound 59] | 800
O=c1nc(N2CCN(c3ccc(Cl)cc3F)CC2)ncn1Cn1ccc(C(F)(F)F)n1 [compound 60] | 420
COc1nc(N2CCN(c3ccc(F)cc3)CC2)nc(=O)n1Cc1ccc(OCc2ccc(Cl)cc2)cc1 [compound 66] | 88
O=c1nc(N2CC=C(c3ccccc3)CC2)ncn1Cc1ccc(C(F)(F)F)s1 [compound 70] | 19
Cc1cc(Cn2cnc(N3CCN(c4ccc(F)cc4)CC3)nc2=O)sc1Br [compound 153] | 51
O=c1nc(N[C@@H]2CCN(c3ccc(F)cc3)C2)ncn1Cc1ccc(C(F)(F)F)s1 [compound 224] | 57
O=c1nc(N2CC=C(c3ccsc3)CC2)ncn1Cc1ccc(C(F)(F)F)s1 [compound 230] | 22
O=c1nc(N2CC=C(c3ccc(Cl)cn3)CC2)ncn1Cc1ccc(C(F)(F)F)s1 [compound 256] | 42
O=c1nc(N2CC=C(c3cnn(CC(F)(F)F)c3)CC2)ncn1Cc1ccc(C(F)(F)F)s1 [compound 259] | 600
O=c1nc(N2CC=C(c3cc4ccccc4o3)CC2)ncn1Cc1ccc(C(F)(F)F)s1 [compound 260] | 140
O=c1nc(N2CC=C(c3cncs3)CC2)ncn1Cc1ccc(C(F)(F)F)s1 [compound 265] | 570
O=C1CCc2cc(C3=CCN(c4ncn(Cc5ccc(C(F)(F)F)s5)c(=O)n4)CC3)ccc21 [compound 269] | 75
COc1cncc(C2=CCN(c3ncn(Cc4ccc(C(F)(F)F)s4)c(=O)n3)CC2)n1 [compound 272] | 350
Cc1cc(C2=CCN(c3ncn(Cc4ccc(C(F)(F)F)s4)c(=O)n3)CC2)sn1 [compound 275] | 30

Further lines, results first:

IC50 [nM] | SMILES
570 | O=c1nc(N2CCC(c3ccc(F)cc3)C(F)(F)C2)ncn1Cc1ccc(Cl)cc1 (stereo not shown) [466b]
170 | O=c1nc(N2CCN(c3ccc(F)cc3)CC2)ncn1Cc1ccc(Cl)cc1 [compound 1]
100 | O=c1nc(N2CCN(c3ccc(F)cc3)CC2)ncn1Cc1ccc(C(F)(F)F)cc1 [compound 3]
56 | CC(C)(C)c1ccc(Cn2cnc(N3CCN(c4ccc(F)cc4)CC3)nc2=O)cc1 [compound 5]
19 | O=c1nc(N2CCN(c3ccc(F)cc3)CC2)ncn1Cc1ccc(OC(F)(F)F)cc1 [compound 6]
140 | O=c1nc(N2CCN(c3ccc(F)cc3)CC2)ncn1Cc1cccc(C(F)(F)F)c1 [compound 8]
50 | O=c1nc(N2CCN(c3ccc(F)cc3)CC2)ncn1Cc1cc2cc(Cl)ccc2o1 [compound 18]
230 | COc1nc(N2CCN(c3ccc(F)cc3)CC2)nc(=O)n1Cc1ccc(Cl)cc1 [compound 31]
610 | CCCCOc1nc(N2CCN(c3ccc(F)cc3)CC2)nc(=O)n1Cc1ccc(Cl)cc1 [compound 65]
24 | O=c1nc(N2CC=C(c3ccc(Cl)cc3)CC2)ncn1Cc1ccc(C(F)(F)F)s1 [compound 71]
120 | O=c1nc(N[C@@H]2CCCN(c3ccc(F)cc3)C2)ncn1Cc1ccc(Cl)cc1 [compound 82]
57 | O=c1nc(NC2CCC(c3ccc(F)cc3)C2)ncn1Cc1ccc(Cl)cc1 (stereo not shown) [compound 85]
19 | O=c1nc(N2CC=C(c3ccc(F)cc3)C(O)C2)ncn1Cc1ccc(Cl)cc1 (stereo not shown) [compound 90]
47 | O=c1nc(N[C@@H]2CCN(c3ccc(F)cc3)C2)ncn1Cc1ccc(Cl)cc1 [compound 92]
110 | C[C@@H]1CN(c2ccc(F)cc2)CCN1c1ncn(Cc2ccc(Cl)cc2)c(=O)n1 [compound 96]
76 | O=c1nc(N2CC=C(c3ccc(F)cc3)C(F)C2)ncn1Cc1ccc(Cl)cc1 (stereo not shown) [compound 107]
130 | O=c1nc(N2CCC(c3ccc(F)cc3)CC2)ncn1Cc1ccc(Cl)cc1 [compound 114]
30 | O=c1nc(NC2CCC3(c4ccc(F)cc4)CC23)ncn1Cc1ccc(Cl)cc1 (stereo not shown) [compound 127]
60 | O=c1nc(NC[C@H]2CCCN2c2ccc(F)cc2)ncn1Cc1ccc(Cl)cc1 [compound 129]
77 | O=c1nc(Nc2nc(-c3ccc(F)c(F)c3)cs2)ncn1Cc1ccc(Cl)cc1 [compound 130]
200 | O=c1nc(Nc2ccn(-c3ccc(F)cc3)c2)ncn1Cc1ccc(Cl)cc1 [compound 131]
320 | CC1CC(F)(c2ccc(F)cc2)CCN1c1ncn(Cc2ccc(Cl)cc2)c(=O)n1 (stereo not shown) [compound 134]

IC50 [nM] | SMILES
55 | CCCCCCOc1ccc(Cn2cnc(N3CCN(c4ccc(F)cc4)CC3)nc2=O)cc1 [compound 140]
96 | O=c1nc(N2CCN(c3ccc(F)cc3)CC2)ncn1Cc1ccc(OCC(F)(F)F)nc1 [compound 144]
600 | O=c1nc(N2CC=C(c3ccc(F)cc3)CC2)ncn1Cc1ccc(OCC(F)(F)F)nn1 [compound 162]
60 | O=c1nc(N2CC=C(c3ccc(F)cc3)CC2)ncn1Cc1ccc2c(c1)CCCO2 [compound 178]
100 | O=c1nc(N2CC=C(c3ccc(F)cc3)CC2)ncn1Cc1ccc2c(c1)OCO2 [compound 182]
41 | CC(C)(C)c1ccc(Cn2cnc(N3CC=C(c4ccc(F)cc4)CC3)nc2=O)cc1 [compound 183]
43 | O=c1nc(N2CC=C(c3ccc(F)cc3)CC2)ncn1Cc1ccc2oc(C(F)(F)F)cc2c1 [compound 184]
42 | O=c1nc(N2CC=C(c3ccc(F)cc3)C(O)C2)ncn1Cn1ccc(C(F)(F)F)n1 (stereo not shown) [compound 188]
12 | O=c1nc(N2CC=C(c3ccc(F)cc3)C(O)C2)ncn1Cc1ccc(OS(=O)(=O)C(F)(F)F)nc1 (stereo not shown) [compound 189]
3.3 | O=c1nc(N2CC=C(c3ccc(F)cc3)C(O)C2)ncn1Cc1ccc(C(F)(F)F)s1 (stereo not shown) [compound 190]
9.9 | O=c1nc(N2CC=C(c3ccc(F)cc3)C(O)C2)ncn1Cn1ccc(C(F)(F)C(F)(F)F)n1 (stereo not shown) [compound 194]
3.6 | O=c1nc(N2CC=C(c3ccc(F)cc3)C(O)C2)ncn1Cc1ccc2c(c1)CC(C(F)(F)F)O2 (stereo not shown) [compound 195]
20 | O=c1nc(N2CC=C(c3ccc(F)cc3)C(O)C2)ncn1Cc1ccc(C2CCCO2)s1 (stereo not shown) [compound 196]
5.7 | O=c1nc(N2CC=C(c3ccc(F)cc3)C(O)C2)ncn1Cc1cc2c(s1)CCCC2 (stereo not shown) [compound 201]
47 | CC(c1ccc(C(F)(F)F)s1)n1cnc(N2CC=C(c3ccc(F)cc3)C(O)C2)nc1=O (stereo not shown) [compound 202]
7.5 | CC(F)(F)c1ccc(Cn2cnc(N3CC=C(c4ccc(F)cc4)[C@@H](O)C3)nc2=O)s1 [compound 207]
6.2 | O=c1nc(N2CC=C(c3ccc(F)cc3)[C@@H](O)C2)ncn1Cc1ccc(OS(=O)(=O)C(F)(F)F)nc1 [compound 208]
2 | O=c1nc(N2CC=C(c3ccc(F)cc3)[C@@H](O)C2)ncn1Cc1ccc(OS(=O)(=O)C(F)(F)F)cc1 [compound 211]
3.4 | Cc1nc(N2CC=C(c3ccc(F)cc3)[C@@H](O)C2)nc(=O)n1Cc1ccc(OS(=O)(=O)C(F)(F)F)cc1 [compound 213]
5.5 | Cc1nc(N2CC=C(c3ccc(F)cc3)[C@@H](O)C2)nc(=O)n1Cc1cnc(C(F)(F)F)s1 [compound 219]
28 | O=c1nc(N2CC=C(c3ccc(F)c(F)c3)CC2)ncn1Cc1ccc(C(F)(F)F)s1 [compound 264]
